In PubChem BioAssay AID248 (DTP/NCI, 2004):
Toxic doses and inconclusive results are not listed. Rule as the data show it: active = T/C of 150% or more; inactive = T/C below 125%.

Test system: L1210 leukemia ip in BDF1 mice, survival T/C
Assay: NCI In Vivo Anticancer Drug Screen. Data for tumor model L1210 Leukemia (intraperitoneal) in B6D2F1 (BDF1) mice
Conditions: endpoint: mean survival time, higher = longer survival
How it was run: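 Value reflects the ratio of survival in compound-treated mice to survival in vehicle-treated controls, with both groups carrying the same transplanted tumor.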

[1] = dose: 100.0 mg/kg/injection, schedule: Q01DX001 (ip), vehicle: Klucel (hydroxypropylcellulose) (HPC)
[2] = dose: 200.0 mg/kg/injection, schedule: Q01DX001 (ip), vehicle: Klucel (hydroxypropylcellulose) (HPC)
[3] = dose: 100.0 mg/kg/injection, schedule: Q01DX009 (ip), vehicle: Klucel (hydroxypropylcellulose) (HPC)
[4] = dose: 200.0 mg/kg/injection, schedule: Q01DX009 (ip), vehicle: Klucel (hydroxypropylcellulose) (HPC)
[5] = dose: 400.0 mg/kg/injection, schedule: Q01DX009 (ip), vehicle: Klucel (hydroxypropylcellulose) (HPC)
[6] = dose: 100.0 mg/kg/injection, schedule: Q04DX002 (ip), vehicle: Klucel (hydroxypropylcellulose) (HPC)
[7] = dose: 200.0 mg/kg/injection, schedule: Q04DX002 (ip), vehicle: Klucel (hydroxypropylcellulose) (HPC)
[8] = dose: 400.0 mg/kg/injection, schedule: Q04DX002 (ip), vehicle: Klucel (hydroxypropylcellulose) (HPC)
[9] = dose: 100.0 mg/kg/injection, schedule: Q01DX001 (ip), vehicle: saline with Tween-80
[10] = dose: 200.0 mg/kg/injection, schedule: Q01DX001 (ip), vehicle: saline with Tween-80
[11] = dose: 100.0 mg/kg/injection, schedule: Q04DX002 (ip), vehicle: saline
[12] = dose: 100.0 mg/kg/injection, schedule: Q01DX001 (ip), vehicle: carboxymethylcellulose (CMC)
[13] = dose: 200.0 mg/kg/injection, schedule: Q01DX001 (ip), vehicle: carboxymethylcellulose (CMC)
[14] = dose: 400.0 mg/kg/injection, schedule: Q01DX001 (ip), vehicle: carboxymethylcellulose (CMC)
[15] = dose: 100.0 mg/kg/injection, schedule: Q01DX001 (ip), vehicle: saline
[16] = dose: 100.0 mg/kg/injection, schedule: Q04DX003 (ip), vehicle: Klucel (hydroxypropylcellulose) (HPC)
[17] = dose: 200.0 mg/kg/injection, schedule: Q04DX003 (ip), vehicle: Klucel (hydroxypropylcellulose) (HPC)
[18] = dose: 400.0 mg/kg/injection, schedule: Q04DX003 (ip), vehicle: Klucel (hydroxypropylcellulose) (HPC)

Measured: T/C

CCCCN(C)N=Nc1ccc(OCC(=O)NN)cc1
inactive: dose: 10.0 mg/kg/injection, schedule: Q01DX Z (ip), vehicle: carboxymethylcellulose (CMC) 93 % of control | dose: 15.0 mg/kg/injection, schedule: Q01DX Z (ip), vehicle: carboxymethylcellulose (CMC) 96 % of control | dose: 20.0 mg/kg/injection, schedule: Q01DX Z (ip), vehicle: carboxymethylcellulose (CMC) 91 % of control | dose: 30.0 mg/kg/injection, schedule: Q01DX Z (ip), vehicle: carboxymethylcellulose (CMC) 114 % of control | dose: 60.0 mg/kg/injection, schedule: Q01DX Z (ip), vehicle: carboxymethylcellulose (CMC) 95 % of control

Clc1ncnc2ccccc12
inactive: [1] 94 % of control | [2] 95 % of control

Cc1ccc(NC(=O)Oc2cccc(C)c2C)cc1NC(=O)Oc1cccc(C)c1C
inactive: [3] 96 % of control | [4] 94 % of control | [5] 93 % of control

COc1ccc(Cl)cc1NC(=O)Nc1ccc(S(N)(=O)=O)cc1
inactive: [3] 102 % of control | [4] 93 % of control | [5] 94 % of control

COC(=O)COc1ccc2ccccc2c1Cl
inactive: [6] 86 % of control | [7] 99 % of control | [8] 96 % of control

C1CCC(CCC(CCCC2CCCC2)CCCC2CCCC2)CC1
inactive: [9] 97 % of control | [10] 92 % of control | dose: 400.0 mg/kg/injection, schedule: Q01DX001 (ip), vehicle: saline with Tween-80 101 % of control

CC1(C)OC2OC(C(O)CO)C(O)C2O1 (stereo not drawn)
inactive: [11] 86 % of control | dose: 200.0 mg/kg/injection, schedule: Q04DX002 (ip), vehicle: saline 107 % of control | dose: 400.0 mg/kg/injection, schedule: Q04DX002 (ip), vehicle: saline 90 % of control

Cc1[nH]c2ccccc2c1C1CCC(=O)C1 (stereo not drawn)
inactive: [12] 100 % of control | [13] 89 % of control | [14] 93 % of control

Cc1ccc(-c2ccno2)cc1
inactive: [12] 96 % of control | [13] 92 % of control | [14] 97 % of control

Nc1ncnc(N)c1[N+](=O)[O-]
inactive: dose: 125.0 mg/kg/injection, schedule: Q01DX Z (ip), vehicle: methylcellulose (MC) 88 % of control

CCN(CC)C(=S)[S][Sn]([c]1ccccc1)([c]1ccccc1)[c]1ccccc1
inactive: dose: 100.0 mg/kg/injection, schedule: Q01DX001 (ip), vehicle: steriod suspending solution 109 % of control | dose: 200.0 mg/kg/injection, schedule: Q01DX001 (ip), vehicle: steriod suspending solution 98 % of control | dose: 400.0 mg/kg/injection, schedule: Q01DX001 (ip), vehicle: steriod suspending solution 98 % of control

CCCCCC[P+](=O)CCCCCC
inactive: dose: 100.0 mg/kg/injection, schedule: Q04DX002 (ip), vehicle: gum acacia 97 % of control | dose: 200.0 mg/kg/injection, schedule: Q04DX002 (ip), vehicle: gum acacia 103 % of control

O=c1[nH]cnc2c1nnn2C1CC(O)C(CO)O1 (stereo not drawn)
inactive: dose: 50.0 mg/kg/injection, schedule: Q01DX001 (ip), vehicle: saline 106 % of control | [15] 116 % of control | dose: 100.0 mg/kg/injection, schedule: Q04DX003 (ip), vehicle: saline 100 % of control | dose: 200.0 mg/kg/injection, schedule: Q04DX003 (ip), vehicle: saline 103 % of control | dose: 400.0 mg/kg/injection, schedule: Q04DX003 (ip), vehicle: saline 111 % of control

CN(C)CCCNCC(Cc1ccccc1)c1ccccc1 (stereo not drawn)
inactive: [11] 93 % of control

C/C=C(\C)C(=O)O[C@@H]1c2cc3c(cc2-c2c(cc(OC)c(OC)c2OC)[C@@H]2C(=O)OC[C@@H]12)OCO3
inactive: dose: 8.0 mg/kg/injection, schedule: Q01DX009 (ip), vehicle: saline + alcohol 94 % of control | dose: 12.0 mg/kg/injection, schedule: Q01DX009 (ip), vehicle: saline + alcohol 108 % of control | dose: 18.0 mg/kg/injection, schedule: Q01DX009 (ip), vehicle: saline + alcohol 105 % of control | dose: 27.0 mg/kg/injection, schedule: Q01DX009 (ip), vehicle: saline + alcohol 100 % of control

COC1CC(C)C(Cl)C(C)C1/C=C/C(=O)O (stereo not drawn)
inactive: dose: 50.0 mg/kg/injection, schedule: Q01DX001 (ip), vehicle: saline with Tween-80 101 % of control | [9] 94 % of control | [10] 94 % of control

Nc1ccc(/C=C/c2ccncc2)cc1
inactive: [3] 92 % of control | [16] 101 % of control | [4] 92 % of control | [17] 104 % of control | [5] 102 % of control | [18] 96 % of control

C=C(Cl)CO
inactive: dose: 25.0 mg/kg/injection, schedule: Q04DX003 (ip), vehicle: saline 118 % of control | dose: 50.0 mg/kg/injection, schedule: Q04DX003 (ip), vehicle: saline 89 % of control

O=C(O)CCCOc1ccc(Cl)cc1Cl
inactive: dose: 100.0 mg/kg/injection, schedule: Q01DX009 (ip), vehicle: saline with Tween-80 103 % of control | dose: 200.0 mg/kg/injection, schedule: Q01DX009 (ip), vehicle: saline with Tween-80 98 % of control | dose: 400.0 mg/kg/injection, schedule: Q01DX009 (ip), vehicle: saline with Tween-80 103 % of control

CN1CCC2(CC1)C(=O)N(Nc1ccccc1)C(=O)C2c1ccccc1 (stereo not drawn)
inactive: [6] 101 % of control | [7] 93 % of control

CC(C)P(CP(=S)(c1ccccc1)c1ccccc1)c1ccccc1 (stereo not drawn)
inactive: dose: 100.0 mg/kg/injection, schedule: Q04DX003 (ip), vehicle: carboxymethylcellulose (CMC) 98 % of control | dose: 200.0 mg/kg/injection, schedule: Q04DX003 (ip), vehicle: carboxymethylcellulose (CMC) 100 % of control | dose: 400.0 mg/kg/injection, schedule: Q04DX003 (ip), vehicle: carboxymethylcellulose (CMC) 93 % of control

COc1ccc(/C=C/C=C/C(=O)O)cc1OC
inactive: dose: 50.0 mg/kg/injection, schedule: Q01DX001 (ip), vehicle: other 102 % of control | dose: 100.0 mg/kg/injection, schedule: Q01DX001 (ip), vehicle: other 98 % of control | dose: 200.0 mg/kg/injection, schedule: Q01DX001 (ip), vehicle: other 107 % of control | dose: 400.0 mg/kg/injection, schedule: Q01DX001 (ip), vehicle: other 91 % of control

Clc1ccccc1C1OC1c1ccccc1Cl (stereo not drawn)
inactive: [3] 105 % of control | [6] 98 % of control | [4] 102 % of control | [7] 91 % of control | [5] 94 % of control | [8] 102 % of control

ClCCCN(CCCCl)c1ccc(C=Nc2cccc(Cl)c2)c(Cl)c1
inactive: [16] 101 % of control | [17] 102 % of control | [18] 95 % of control

Cc1cccc(C)c1NC(N)=S
inactive: [16] 98 % of control | [17] 90 % of control

CCCCc1c(N)nc(N)nc1-c1ccccc1
inactive: [1] 112 % of control | [2] 105 % of control | dose: 400.0 mg/kg/injection, schedule: Q01DX001 (ip), vehicle: Klucel (hydroxypropylcellulose) (HPC) 94 % of control

O=C1c2ccccc2C2NCCCN12 (stereo not drawn)
inactive: dose: 100.0 mg/kg/injection, schedule: Q01DX009 (ip), vehicle: saline 102 % of control | dose: 200.0 mg/kg/injection, schedule: Q01DX009 (ip), vehicle: saline 100 % of control | dose: 400.0 mg/kg/injection, schedule: Q01DX009 (ip), vehicle: saline 96 % of control

CC(C)(C)/C([O-])=N/[N+](C)(C)C
inactive: [15] 108 % of control | dose: 200.0 mg/kg/injection, schedule: Q01DX001 (ip), vehicle: saline 97 % of control | dose: 400.0 mg/kg/injection, schedule: Q01DX001 (ip), vehicle: saline 101 % of control

COc1cc2c(cc1OC)/C(=N\O)CCCC2
inactive: dose: 100.0 mg/kg/injection, schedule: Q01DX009 (ip), vehicle: saline sonified 97 % of control | [16] 96 % of control | dose: 200.0 mg/kg/injection, schedule: Q01DX009 (ip), vehicle: saline sonified 94 % of control | [17] 94 % of control | dose: 400.0 mg/kg/injection, schedule: Q01DX009 (ip), vehicle: saline sonified 100 % of control | [18] 97 % of control
